Biological target: T1, PARP-1 (Homo sapiens, UniProt P09874)
T1 construct: gene PARP1
Assay: colorimetric PARP assay kit (Trevigen), biotinylated NAD incorporation
Format: biochemical

T1 sequence (P09874 2-1014): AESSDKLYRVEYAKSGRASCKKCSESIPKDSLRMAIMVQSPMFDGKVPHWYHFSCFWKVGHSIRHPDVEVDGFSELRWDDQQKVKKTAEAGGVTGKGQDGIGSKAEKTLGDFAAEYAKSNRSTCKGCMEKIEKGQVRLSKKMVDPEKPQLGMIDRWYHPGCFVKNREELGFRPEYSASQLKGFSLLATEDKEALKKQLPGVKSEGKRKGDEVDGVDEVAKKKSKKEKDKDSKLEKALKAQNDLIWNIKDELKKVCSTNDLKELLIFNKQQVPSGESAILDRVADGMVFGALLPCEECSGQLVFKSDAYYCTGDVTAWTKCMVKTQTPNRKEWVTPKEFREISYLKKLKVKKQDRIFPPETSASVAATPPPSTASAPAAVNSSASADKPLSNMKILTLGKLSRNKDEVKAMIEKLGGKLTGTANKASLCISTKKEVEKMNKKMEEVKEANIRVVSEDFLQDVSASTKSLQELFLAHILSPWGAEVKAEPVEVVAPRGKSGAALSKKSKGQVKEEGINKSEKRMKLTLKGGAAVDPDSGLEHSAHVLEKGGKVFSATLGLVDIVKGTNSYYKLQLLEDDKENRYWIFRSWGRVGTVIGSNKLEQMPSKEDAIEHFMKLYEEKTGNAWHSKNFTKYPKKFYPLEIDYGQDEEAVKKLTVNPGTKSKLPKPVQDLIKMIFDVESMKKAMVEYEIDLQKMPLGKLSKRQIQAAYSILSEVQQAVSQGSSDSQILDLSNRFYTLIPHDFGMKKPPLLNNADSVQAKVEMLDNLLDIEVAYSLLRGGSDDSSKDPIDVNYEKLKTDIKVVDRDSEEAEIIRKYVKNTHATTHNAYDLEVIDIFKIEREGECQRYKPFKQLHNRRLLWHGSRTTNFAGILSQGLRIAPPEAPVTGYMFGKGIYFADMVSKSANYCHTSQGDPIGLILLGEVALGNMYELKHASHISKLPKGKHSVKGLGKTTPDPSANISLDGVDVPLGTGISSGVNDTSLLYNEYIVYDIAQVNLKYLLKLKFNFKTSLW

NCCS(=O)(=O)O [TAU, taurine]
IC50: 320 µM

Source: PMC2994389 (2010)
